Results published in publication PMC4850273 (mBio, 2016).

Target: T1, SGBP-A (Bacteroides ovatus, UniProt A7LXT5)
T1 sequence (A7LXT5 28-546): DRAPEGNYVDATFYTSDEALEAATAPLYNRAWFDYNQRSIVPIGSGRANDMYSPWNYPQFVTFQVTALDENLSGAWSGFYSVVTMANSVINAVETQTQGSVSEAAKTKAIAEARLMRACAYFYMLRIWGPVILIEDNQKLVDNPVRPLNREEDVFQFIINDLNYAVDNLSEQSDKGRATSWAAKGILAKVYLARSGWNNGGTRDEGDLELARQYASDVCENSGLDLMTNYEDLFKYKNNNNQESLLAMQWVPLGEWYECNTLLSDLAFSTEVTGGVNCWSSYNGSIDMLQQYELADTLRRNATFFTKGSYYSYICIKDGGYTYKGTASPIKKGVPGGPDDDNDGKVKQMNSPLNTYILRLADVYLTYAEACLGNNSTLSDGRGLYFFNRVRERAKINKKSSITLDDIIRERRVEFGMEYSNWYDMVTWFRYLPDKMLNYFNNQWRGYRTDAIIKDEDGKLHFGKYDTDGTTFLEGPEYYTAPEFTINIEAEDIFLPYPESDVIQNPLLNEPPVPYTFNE
Test: ITC
Format: binding
Conditions: 25 °C, 20 mM HEPES, 100 mM NaCl, pH 7.0; two titrations

Ka (M^-1) / SGBP-A: 568.0 ± 291.0
Structure (SMILES): OC[C@H]1O[C@@H](O[C@H]2[C@H](O)[C@@H](O)[C@H](O[C@H]3[C@H](O)[C@@H](O)[C@H](O[C@H]4[C@H](O)[C@@H](O)[C@H](O[C@H]5[C@H](O)[C@@H](O)[C@H](O[C@H]6[C@H](O)[C@@H](O)C(O)O[C@@H]6CO)O[C@@H]5CO)O[C@@H]4CO)O[C@@H]3CO)O[C@@H]2CO)[C@H](O)[C@@H](O)[C@@H]1O (stereo partly shown) [Cellohexaose]
